The conditions of data set [1]: doses of 20 to 30 mg/m^2; cited from earlier work.
Data set [2] has as its system advanced gastrointestinal cancer. To be noted: cited from earlier work.
Data set [3] deals with advanced malignant melanoma. The settings on record: fifteen patients, 90-360 mg/m^2 every 2 weeks; cited from earlier work.
The conditions of data set [4]: cited from earlier work.
For data set [5] the following is noted: clinical studies in Japan; cited from earlier work.
The subject of data set [6] is A2780/WT (wild-type) cells. Briefly: Sulforhodamine B (SRB) cytotoxicity assay in A2780/WT cells. The settings on record: Homo sapiens. It is filed as cell-based. How it is done:
(§1) Each of the testing conditions used in this study in both A2780/WT (wild-type) and A2780/DX5 cells were repeated in five to fifteen experiments that were performed on separate days. Each experiment consisted of one microtiter plate with at least eight individual assays of a given drug treatment condition on the plate. The sulforhodamine B (SRB) assay was used to assess cytotoxicity and absorbance at 570 nm (A570) in order to calculate the percentage of cell control (or percent cell survival) for the various treatment conditions in the plate wells.
(§2) Roswell Park Memorial Institute (RPMI 1640) medium, fetal bovine serum (FBS), and L-glutamine were purchased from Gibco BRL. Drugs were dissolved in sterile dimethylsulfoxide (DMSO), from American Type Culture Collection (ATCC) for stock solutions (2.5 to 5.0 mM). Subsequent dilutions were made using cell culture medium (prior to adding the drug to cells). SRB was purchased from Sigma and dissolved in 1.0 percent acetic acid. Trichloroacetic acid was purchased from VWR International.
(§3) Cells were manipulated in a Class IIA/B3 Biological Safety Cabinet (Forma Scientific) and maintained at 37° C. in a humidified atmosphere containing 5% CO2 in a water-jacketed cell culture incubator (Forma Scientific). Cells were counted using a Coulter-Z1 counter (Beckman-Coulter). Following drug treatment, plates were washed using a Biomek 2000 station (Beckman) and, following exposure to SRB dye, plates were washed using an automated plate washer (Model EL404, Bio-Tek Instruments). Percentage of control was correlated to A570 values and determined using a Model EL800 plate reader (Bio-Tek Instruments).
Population doubling times for the two cell lines used in this study encompassed a total of five cell doublings corresponding to approximately 5 days for A2780/WT and A2780/DX5 cells. A2780/WT and A2780/DX5 cells were cultured in RPMI 1640 medium supplemented with 10% fetal bovine serum and 1 mM of L-glutamine. Both cell lines were maintained as monolayered cultures in T-25 or T-75 flasks and then seeded to microtiter plate wells for experiments described herein. Prior to SRB assays, cell viability was monitored by evaluation of microtiter plate wells. […]
The sulforhodamine B (SRB) cytotoxicity assay (see, Skehan P, et al., New colorimetric cytotoxicity assay for anticancer-drug screening. J. Natl. Cancer Inst. 82:1107-1112 (1990)) was used to determine the cytotoxic effects of BNP1350, SN-38, topotecan, 9-NH2-CPT, and 9-NO2-CPT on cell growth in vitro. […] Plates were agitated (gently) for 5 minutes and the absorbance values of the SRB dye-protein adduct at a 570 nm wavelength (A570) were determined using an automated microtiter plate reader equipped with an A570 filter (Model EL800, BioTek Instruments).
A general note: In SRB staining, fixed cells bind dye roughly in proportion to their protein.

In another data set the test system is human plasma proteins. Briefly: Percent of free camptothecin analogs in human plasma (dialysis, HPLC). To be noted: 100 nM compound concentrations.
A further data set relates to A2780/DX5 cells. In words: Sulforhodamine B (SRB) cytotoxicity assay in A2780/DX5 cells. In kind it is cell-based. To be noted: for IC50 Ratio: A2780/DX5 versus A2780/WT; for IC50: Homo sapiens, A2780, read-out: A2780/DX5. How it is done:
as §1, §2, §3
Population doubling times for the two cell lines used in this study encompassed a total of five cell doublings corresponding to approximately 5 days for A2780/WT and A2780/DX5 cells. A2780/WT and A2780/DX5 cells were cultured in RPMI 1640 medium supplemented with 10% fetal bovine serum and 1 mM of L-glutamine. Both cell lines were maintained as monolayered cultures in T-25 or T-75 flasks and then seeded to microtiter plate wells for experiments described herein. Prior to SRB assays, cell viability was monitored by evaluation of microtiter plate wells. Dead cells detach and float while living cells remain attached to the bottom of the cell well.
The sulforhodamine B (SRB) cytotoxicity assay (see, Skehan P, et al., New colorimetric cytotoxicity assay for anticancer-drug screening. J. Natl. Cancer Inst. 82:1107-1112 (1990)) was used to determine the cytotoxic effects of BNP1350, SN-38, topotecan, 9-NH2-CPT, and 9-NO2-CPT on cell growth in vitro. Briefly, after the medium was aspirated from individual plate wells, trichloroacetic acid (100 μL of 10.0% solution) was added to each well, and the plates were incubated at 4° C. for at least 1 hour. The plates were washed five-times with water using an automated microplate washer (Model EL 404, Bio-Tek Instruments), SRB solution (100 μL of 0.4 grams SRB dissolved in 100 mL 1.0 percent acetic acid) was added, and plates remained at room temperature for 15 minutes. The plates were then washed five-times using acetic acid (1.0%), air dried, and bound dye was solubilized in Tris base (150 μL, 10 mM). Plates were agitated (gently) for 5 minutes and the absorbance values of the SRB dye-protein adduct at a 570 nm wavelength (A570) were determined using an automated microtiter plate reader equipped with an A570 filter (Model EL800, BioTek Instruments).

For data set [7], the system named is panel of over 20 human cancer cell lines.
For data set [8] the following is noted: carboxylate form versus lactone form; cited from earlier work.
The mark [9] stands for this setting: 5-day course (27 patients total), 4 wks.
The mark [10] stands for this setting: 5-day course (27 patients total), 8 wks.
Setting [11] is: 5-day course (27 patients total), 12 wks.
The mark [12] stands for this setting: single-dose method (34 patients total), 3 wks.
Where [13] appears, read: single-dose method (34 patients total), 6 wks.
Where [14] appears, read: single-dose method (34 patients total), 9 wks.
Setting [15] is: single-dose method (34 patients total), 12 wks.
The mark [16] stands for this setting: 5-day course, 15 mg/m^2 × 5, 9 patients treated.
The mark [17] stands for this setting: 5-day course, 17 mg/m^2 × 5, 5 patients treated.
Where [18] appears, read: 5-day course, 20 mg/m^2 × 5, 10 patients treated.
Where [19] appears, read: single-dose method, 110 mg/m^2, 2 patients treated.
Where [20] appears, read: single-dose method, 120 mg/m^2, 7 patients treated.
Setting [21] is: single-dose method, 180 mg/m^2, 9 patients treated.

Here are results for eight compounds from US7687496B2, “C7-substituted camptothecin analogs” (priority 2007, dated 2010).

Where two headings read alike, the source gives them in different places.

Procedure for human plasma proteins: Stocks of various camptothecin analogs were prepared in DMSO. Phosphate buffer was prepared from analytical grade reagents and regenerated cellulose membranes with 12-14 kD molecular weight cut-off (MWCO) were purchased from Spectrum Laboratories. Samples were incubated 48 hours or longer at room temperature until equilibrium was reached. Experiments to determine the percent of free camptothecin/Karenitecin® analogs were performed in triplicate. Optimum HPLC detection conditions for each camptothecin/Karenitecin® analog were developed using traditional HPLC methods.

As for `CC[C@@]1(O)C(=O)OCc2c1cc1n(c2=O)Cc2cc3ccccc3nc2-1` [CPT sodium], in data set [1], the dose-limiting bladder toxicity result was “three patients”. The “Objective results: Improved” value is 1 patients in [2] (setting [9]); 4 patients in [2] (single-dose method (34 patients total), 3 wks after start of therapy); 2 patients in data set [2] (setting [13]); 2 patients in data set [2] (setting [14]). The “Objective results: Stable” value is listed as 12 patients in [2] (setting [9]); 7 patients in [2] (setting [10]); 6 patients in data set [2] (setting [11]); 17 patients in data set [2] (setting [12]); 11 patients in data set [2] (setting [13]); 8 patients in [2] (setting [14]). In data set [2] (setting [15]), the “Objective results: Stable” value is on record as 6 patients. The “Objective results: Worse” value in data set [2] (setting [9]) is listed as 14 patients; in data set [2] (setting [10]), 20 patients; in data set [2] (setting [11]), 21 patients; in data set [2] (setting [12]) it was 13 patients; in data set [2] (setting [13]), 21 patients; in data set [2] (setting [14]), 24 patients. Further, the “Objective results: Worse” value in [2] (setting [15]) is on record as 28 patients. The “patients with evidence of partial objective improvement” value in [2] (after 2 months (8 or 9 weeks), 61 patients) was “two of their 61 patients”. The “less pronounced transient tumor regression” value in [3] is listed as “three patients”. Also, the myelosuppression in data set [3] is on record as 11 patients. Besides, in data set [3], the “patients with a 50% or greater decrease in tumor diameter” value is “None of the patients”. In data set [4] (5-day course (P < 0.05)), the Cystitis is 48 (P < 0.05) % of 27 Patients. The “Number of patients with cystitis” value is reported as 1 patients in data set [4] (5-day course, 11 mg/m^2 × 5, 2 patients treated); 4 patients in data set [4] (setting [16]); 2 patients in data set [4] (setting [17]); 6 patients in data set [4] (setting [18]); 2 patients in data set [4] (single-dose method, 100 mg/m^2, 6 patients treated); 1 patients in data set [4] (setting [19]). In addition, the “Number of patients with cystitis” value in data set [4] (setting [20]) is on record as 2 patients; in data set [4] (setting [21]), 3 patients. Also, the “Number of patients with diarrhea” value in data set [4] (setting [16]) is 1 patients; in [4] (setting [17]), 4 patients; in data set [4] (setting [18]), 4 patients; in data set [4] (5-day course, 22 mg/m^2 × 5, 1 patient treated) it was 1 patients; in data set [4] (setting [19]) it was 1 patients; in data set [4] (setting [20]), 4 patients. Also, the “Number of patients with diarrhea” value in [4] (setting [21]) is 2 patients.
Consider `CCc1c2c(nc3ccc(OC(=O)N4CCC(N5CCCCC5)CC4)cc13)-c1cc3c(c(=O)n1C2)COC(=O)[C@]3(O)CC` [CPT-11, 7-ethyl-10-[4-(1-piperidino)-1-piperidino]carbonyloxy camptothecin], for which, in [5], the “patient deaths directly attributable to drug toxicity” value is on record as “approximately 100 patient deaths”.
`C=C[Si](C)(C)CCc1c2c(nc3ccccc13)-c1cc3c(c(=O)n1C2)COC(=O)[C@]3(O)CC` [Compound 1, 11-(4S)-[2-(dimethylvinylsilanyl)-ethyl]-4-ethyl-4-hydroxy-1,12-dihydro-4H-2-oxa-6,12a-diaza-dibenzo[b,h]fluorene-3,13-dione]: the IC50 in data set [6] (SRB assay, A2780/WT cells, read-out: A2780/WT) stood at 13 nM. The “Percent of Free Camptothecin Analogs in Human Plasma” value in the data set on human plasma proteins was 2%. For the same compound, in the data set with A2780/DX5 cells, the “IC50 Ratio” value is 1.68 and the IC50 amounted to 21.8 nM.
Turning to `CC[C@@]1(O)C(=O)OCc2c1cc1n(c2=O)Cc2c-1nc1ccccc1c2CC[Si](C)(C)CSC(C)=O` [Compound 9, thioacetic acid S-({[2-(4-ethyl-4-hydroxy-3,13-dioxo-3,4,12,13-tetrahydro-1H-2-oxa-6,12a-diaza-dibenzo[b,h]fluoren-11-yl)-ethyl]-dimethylsilanyl}-methyl)ester], the IC50 in data set [6] (A2780, read-out: A2780/WT) turned out to be 64.7 nM; in the data set with A2780/DX5 cells, 125 nM. In the data set with A2780/DX5 cells, the “IC50 Ratio” value is recorded as 1.94.
In the case of `CC[C@@]1(O)C(=O)OCc2c1cc1n(c2=O)Cc2c-1nc1ccccc1c2CC[Si](C)(C)CCCOC(=O)C1CCC1` [Compound 62, Cyclobutanecarboxylic acid 3-{[2-(4-ethyl-4-hydroxy-3,13-dioxo-3,4,12,13-tetrahydro-1H-2-oxa-6,12a-diaza-dibenzo[b,h]fluoren-11-yl)-ethyl]-dimethyl-silanyl}-propyl ester], the IC50 in data set [6] (A2780, read-out: A2780/WT) was determined as 10.4 nM; in the data set on A2780/DX5 cells, 39.2 nM. For the same compound, in the data set on A2780/DX5 cells, the “IC50 Ratio” value was 3.77.
Take `CC[C@@]1(O)C(=O)OCc2c1cc1n(c2=O)Cc2c-1nc1ccccc1c2CC[Si](C)(C)CCCOC(=O)C1=CCNO1` [Compound 64, 2,3-Dihydro-isoxazole-5-carboxylic acid 3-{[2-(4-ethyl-4-hydroxy-3,13-dioxo-3,4,12,13-tetrahydro-1H-2-oxa-6,12a-diaza-dibenzo[b,h]fluoren-11-yl)-ethyl]-dimethyl-silanyl}-propyl ester]: the IC50 in [6] (A2780, read-out: A2780/WT) was 14 nM. Moreover, in the data set with A2780/DX5 cells, the “IC50 Ratio” value is 4.27 and the IC50 was 59.8 nM.
Regarding `CC[C@@]1(O)C(=O)OCc2c1cc1n(c2=O)Cc2c-1nc1ccccc1c2CC[Si](C)(C)C` [Karenitecin, (4S)-4-ethyl-4-hydroxy-11-[2-(trimethylsilyl)ethyl]-1H-pyrano[3′:4′:6,7]indolizino[1,2-b]quinoline-3,14(4H,12H)-dione], the “antitumor potency compared with Topotecan and SN-38” value in [7] is given as “significantly more potent antitumor agent than either Topotecan™ or SN-38”.
For `CC[C@@](O)(C(=O)O)c1cc2n(c(=O)c1CO)Cc1cc3ccccc3nc1-2` [carboxylate form of CPT], in data set [8], the “reduction of anti-tumor activity” value is listed as “at least 10 fold”.
